Measurements taken from patent US20160030561A1, “Methods of Treating Pancreatic Cancer” (ONCOMED PHARMACEUTICALS, INC., priority 2013, published 2016).
“Also recorded” adds a separate entry of the source. Where a SMILES comes first, the peptide text is derived from it. [ ]: non-standard residue; d: D form. The star is where a group is joined. Nle = CCCC[C@H](N)C(=O)O; Cbz = O=C(OCc1ccccc1)*

Tests used:
[1] = tested on: melanoma and Kaposi sarcoma; settings: cell lines and/or xenografts in mice from melanoma and Kaposi sarcoma; cited from earlier work
[2] = tested on: tumor cell lines that overexpressed NOTCH3; settings: tumor cell lines that overexpressed NOTCH3, not those with minimal NOTCH3 expression; cited from earlier work
[3] = tested on: UM-T1 breast (NOTCH3 high expressing) tumor cells; test: In vivo xenograft assay, UM-T1 breast tumor; parameters: species or system NOD-SCID mice; settings: FIG. 1E
Experimental: Tumors were allowed to grow 28 days until they had reached an average volume of 120 mm^3. […] Antibodies were dosed weekly at 20 mg/kg. Taxol was dosed at 10 mg/kg weekly.

[4] = tested on: OMP-PN17 pancreatic tumor; test: In vivo xenograft assay, OMP-PN17 pancreatic tumor; parameters: species or system NOD-SCID mice; settings: FIG. 1B
Experimental: (§1) 20,000 OMP-PN8 tumor cells were injected into NOD-SCID mice. Tumors were allowed to grow 22 days until they had reached an average volume of 125 mm^3. […] Antibodies were dosed every other week at 40 mg/kg. Gemcitabine was dosed at 20 mg/kg weekly.
The ability of anti-NOTCH2/3 OMP-59R5 antibody to inhibit the in vivo growth of OMP-PN17 pancreatic tumor was determined using substantially identical methods.

[5] = tested on: UM-PE13 breast (NOTCH3 high expressing) tumor cells; test: In vivo xenograft assay, UM-PE13 breast tumor; parameters: species or system NOD-SCID mice; settings: FIG. 1D
Experimental: (§2) Antibodies were dosed weekly at 20 mg/kg. Taxol was dosed at 10 mg/kg weekly.

[6] = tested on: breast or lung tumors with high NOTCH3 gene expression; test: In vivo xenograft assay, panel of breast or lung tumors with high NOTCH3 gene expression; parameters: species or system NOD-SCID mice; settings: OMP-59R5 in combination with a chemotherapeutic agent (taxol); NOTCH3 cut-off value of 500
Experimental: as §2

[7] = tested on: OMP-Lu53 lung (NOTCH3 high expressing) tumor cells; test: In vivo xenograft assay, OMP-Lu53 lung tumor; parameters: species or system NOD-SCID mice; settings: in combination with taxol; antibody 40 mg/kg every other week, taxol 10 mg/kg weekly; FIG. 1G
Experimental: Antibodies were dosed every other week at 40 mg/kg. Taxol was dosed at 10 mg/kg weekly.

OMP-PN8 tumor cells = test: In vivo xenograft assay, OMP-PN8 pancreatic tumor; parameters: species or system NOD-SCID mice
Experimental: as §1
Tumors were allowed to grow 26 days until they had reached an average volume of 110 mm^3. Tumor bearing mice were randomized into 3 groups (n=9 mice per group) and treated with control antibody, gemcitabine, plus ABRAXANE™ (albumin bound paclitaxel), or the combination of OMP-59R5 anti-NOTCH2/3 antibody and gemcitabine plus ABRAXANE™ OMP-59R5 was dosed every other week at 40 mg/kg. Gemcitabine was dosed at 10 mg/kg weekly and ABRAXANE™ at 30 mg/kg weekly. […] The top and bottom graphs show data obtained from the same experiment on different scales.

OMP-PN11 tumor cells = test: In vivo xenograft assay, OMP-PN11 pancreatic tumor; parameters: species or system NOD-SCID mice; settings: FIG. 1C
Experimental: 50,000 OMP-PN11 tumor cells were injected into NOD-SCID mice. Tumors were allowed to grow 21 days until they had reached an average volume of 120 mm^3. […] Antibodies were dosed every other week at 40 mg/kg. Gemcitabine was dosed at 20 mg/kg weekly.

[8] = tested on: OMP-Lu40 lung (NOTCH3 low expressing) tumor cells; test: In vivo xenograft assay, OMP-Lu40 lung tumor; parameters: species or system NOD-SCID mice; settings: in combination with taxol; antibody 20 mg/kg weekly, taxol 10 mg/kg weekly; FIG. 1F
Experimental: as §2

T-ALL = T-ALL animal model; cited from earlier work
medulloblastoma = settings: cited from earlier work
[9] = tested on: Ras-transformed fibroblasts; settings: cited from earlier work
[10] = tested on: pancreatic tumors with high NOTCH3 gene expression; test: In vivo xenograft assay, panel of pancreatic tumors with high NOTCH3 gene expression; parameters: species or system NOD-SCID mice; settings: treatment with OMP-59R5 and gemcitabine; NOTCH3 cut-off value of 500
Experimental: as §1

intestinal adenomas = intestinal adenomas in Apc−/− (min) mice; cited from earlier work
[11] = as a single agent, 20 mg/kg weekly
[12] = in combination with taxol, antibody 20 mg/kg weekly, taxol 10 mg/kg weekly

## CCCC[C@@H](C=O)NC(=O)[C@H](CC(C)C)NC(=O)[C@H](CC(C)C)NC(=O)OCc1ccccc1 [z-Leu-leu-Nle-CHO] (Cbz-Leu-Leu-[Nle]-aldehyde)
[1]
  Tumor growth: suppress tumor growth
[2]
  Cell proliferation and apoptosis: suppression of cell proliferation and induction of apoptosis

## OMP-59R5: 59R5 IgG2 anti-NOTCH2/3 antibody, heavy and light chain of SEQ ID NO:30 and SEQ ID NO:33; ATCC PTA-10170
[3]; [11]
  UM-T1 tumor growth: no effect
[3]; [12]
  UM-T1 tumor growth: no effect
[4]; as a single agent
  OMP-PN17 tumor growth: strongly inhibited
[4]; in combination with gemcitabine
  OMP-PN17 tumor growth: strongly inhibited
[5]; [11]
  UM-PE13 tumor growth: strongly inhibited
[5]; [12]
  UM-PE13 tumor growth: strongly inhibited
[6]
  Breast or lung tumors with high NOTCH3 gene expression responsive: 5 out of 14
[7]
  OMP-Lu53 tumor growth: no effect
OMP-PN8 tumor cells; as a single agent, 40 mg/kg every other week, FIG. 1A
  OMP-PN8 tumor growth: strongly inhibited
OMP-PN8 tumor cells; in combination with gemcitabine plus ABRAXANE, FIG. 9
  Activity on OMP-PN8 tumor growth compared with gemcitabine plus ABRAXANE alone: more active
OMP-PN8 tumor cells; in combination with gemcitabine plus ABRAXANE, OMP-59R5 40 mg/kg every other week, gemcitabine 10 mg/kg weekly, ABRAXANE 30 mg/kg weekly, FIG. 9
  OMP-PN8 tumor growth: strongly inhibited; also recorded: active
OMP-PN8 tumor cells; in combination with gemcitabine, antibody 40 mg/kg every other week, gemcitabine 20 mg/kg weekly, FIG. 1A
  OMP-PN8 tumor growth: strongly inhibited
OMP-PN11 tumor cells; as a single agent, 40 mg/kg every other week
  OMP-PN11 tumor growth: no effect
OMP-PN11 tumor cells; in combination with gemcitabine, antibody 40 mg/kg every other week, gemcitabine 20 mg/kg weekly
  OMP-PN11 tumor growth: no effect
[8]
  OMP-Lu40 tumor growth: strongly inhibited

## C[C@H](NC(=O)Cc1cc(F)cc(F)c1)C(=O)N[C@H](C(=O)OC(C)(C)C)c1ccccc1 [DAPT, N-[N-(3,5-difluorophenacetyl)-L-alanyl]-S-phenylglycine t-butyl ester]
T-ALL
  Cell cycle arrest and apoptosis: induced G0-G1 cell cycle arrest and apoptosis
medulloblastoma
  Medulloblastoma growth: marked reduction

## CCC(C)C(NC(=O)OCc1ccccc1)C(=O)NC(C=O)CC(C)C (stereo not drawn) [IL-X, cbz-IL-CHO] (Cbz-Ile-Leu-aldehyde; configuration not given here)
[9]
  Antineoplastic activity: NOTCH1-dependent antineoplastic activity

## OMP-59R5 + gemcitabine: combination treatment with OMP-59R5 anti-NOTCH2/3 antibody and gemcitabine
[10]
  Pancreatic tumors with high NOTCH3 gene expression responsive in vivo: 9 out of the 10

## dibenzazepine
Intestinal adenomas
  Epithelial cell proliferation and goblet cell differentiation: inhibit epithelial cell proliferation and induce goblet cell differentiation
